According to the OligoGym collection:
Values joined by “and” are separate entries in the source; they are usually repeats but may differ in a detail not shown here. Equal entries are not always repeated. HELM strings list units from the 5' end as sugar, base in round brackets, then linkage (d deoxyribose, r ribose, m 2'-O-methyl, p phosphodiester). Methylation of C is not given here. [moe] = 2'-O-(2-methoxyethyl) (MOE); [cEt] = constrained ethyl (cEt); [sp] = phosphorothioate linkage

Biological target: HBV
Conditions: ASO

Substance	target mRNA inhibition (HepG2, 0.07 µM)	further results
RNA1{[moe](A)[sp].[moe](T)[sp].[moe](T)[sp].[moe](T)[sp].d(A)[sp].d(T)[sp].d(G)[sp].d(C)[sp].d(C)[sp].d(T)[sp].d(A)[sp].d(C)[sp].d(A)[sp].[moe](G)[sp].[moe](C)[sp].[moe](C)}$$$$V2.0	52% and 49%	–
RNA1{[moe](G)[sp].[cEt](C)[sp].[cEt](A)[sp].d(G)[sp].d(T)[sp].d(A)[sp].d(T)[sp].d(G)[sp].d(G)[sp].d(A)[sp].d(T)[sp].d(C)[sp].d(G)[sp].[cEt](G)[sp].[cEt](C)[sp].[moe](A)}$$$$V2.0	77% and 75%	–
RNA1{[moe](G)[sp].[moe](C)[sp].d(A)[sp].d(G)[sp].d(A)[sp].d(G)[sp].d(G)[sp].d(T)[sp].d(G)[sp].d(A)[sp].d(A)[sp].[moe](G)[sp].[moe](C)[sp].[moe](G)[sp].[moe](A)[sp].[moe](A)}$$$$V2.0	58% and 57%	–
RNA1{[moe](G)[sp].[cEt](A)[sp].d(A)[sp].d(G)[sp].d(T)[sp].d(C)[sp].d(C)[sp].d(A)[sp].d(C)[sp].d(C)[sp].d(A)[sp].d(C)[sp].[cEt](G)[sp].[moe](A)[sp].[cEt](G)[sp].[moe](T)}$$$$V2.0	43% and 50%	–
RNA1{[moe](A)[sp].[cEt](C)[sp].[cEt](A)[sp].d(A)[sp].d(A)[sp].d(T)[sp].d(G)[sp].d(G)[sp].d(C)[sp].d(A)[sp].d(C)[sp].d(T)[sp].d(A)[sp].[cEt](G)[sp].[cEt](T)[sp].[moe](A)}$$$$V2.0	67% and 61%	–
RNA1{[moe](C)[sp].[cEt](G)[sp].[cEt](T)[sp].d(G)[sp].d(C)[sp].d(A)[sp].d(G)[sp].d(A)[sp].d(G)[sp].d(G)[sp].d(T)[sp].d(G)[sp].d(A)[sp].[cEt](A)[sp].[cEt](G)[sp].[moe](C)}$$$$V2.0	68% and 65%	–
RNA1{[moe](C)[sp].[cEt](A)[sp].[cEt](G)[sp].d(C)[sp].d(T)[sp].d(T)[sp].d(G)[sp].d(G)[sp].d(A)[sp].d(G)[sp].d(G)[sp].d(C)[sp].d(T)[sp].[cEt](T)[sp].[cEt](G)[sp].[moe](A)}$$$$V2.0	5% and 12%	–
RNA1{[moe](T)[sp].[moe](G)[sp].[moe](A)[sp].[moe](G)[sp].[moe](G)[sp].d(C)[sp].d(A)[sp].d(T)[sp].d(A)[sp].d(G)[sp].d(C)[sp].d(A)[sp].d(G)[sp].d(C)[sp].[moe](A)[sp].[moe](G)}$$$$V2.0	48% and 51%	–
RNA1{[moe](A)[sp].[moe](C)[sp].d(C)[sp].d(A)[sp].d(A)[sp].d(T)[sp].d(T)[sp].d(T)[sp].d(A)[sp].d(T)[sp].d(G)[sp].[moe](C)[sp].[moe](C)[sp].[moe](T)[sp].[moe](A)[sp].[moe](C)[sp].[moe](A)}$$$$V2.0	54% and 47%	–
RNA1{[moe](C)[sp].[cEt](T)[sp].d(G)[sp].d(A)[sp].d(A)[sp].d(C)[sp].d(A)[sp].d(A)[sp].d(A)[sp].d(T)[sp].d(G)[sp].d(G)[sp].[cEt](C)[sp].[moe](A)[sp].[cEt](C)[sp].[moe](T)}$$$$V2.0	58% and 71%	–
RNA1{[moe](C)[sp].[moe](G)[sp].[moe](A)[sp].[moe](A)[sp].d(C)[sp].d(C)[sp].d(A)[sp].d(C)[sp].d(T)[sp].d(G)[sp].d(A)[sp].d(A)[sp].d(C)[sp].[moe](A)[sp].[moe](A)[sp].[moe](A)[sp].[moe](T)}$$$$V2.0	48% and 41%	–
RNA1{[moe](G)[sp].[cEt](G)[sp].[cEt](A)[sp].d(G)[sp].d(T)[sp].d(T)[sp].d(C)[sp].d(C)[sp].d(G)[sp].d(C)[sp].d(A)[sp].d(G)[sp].d(T)[sp].[cEt](A)[sp].[cEt](T)[sp].[moe](G)}$$$$V2.0	90% and 76%	target mRNA inhibition (HepG2, 0.0092593 µM): 13%; target mRNA inhibition (HepG2, 0.0277778 µM): 42%; target mRNA inhibition (HepG2, 0.0833333 µM): 74%; target mRNA inhibition (HepG2, 0.25 µM): 89%
RNA1{[moe](G)[sp].[moe](A)[sp].[moe](G)[sp].[moe](A)[sp].d(A)[sp].d(G)[sp].d(T)[sp].d(C)[sp].d(C)[sp].d(A)[sp].d(C)[sp].d(C)[sp].d(A)[sp].[moe](C)[sp].[moe](G)[sp].[moe](A)[sp].[moe](G)}$$$$V2.0	42% and 29%	–
RNA1{[moe](T)[sp].[cEt](A)[sp].[cEt](T)[sp].d(G)[sp].d(C)[sp].d(C)[sp].d(T)[sp].d(A)[sp].d(C)[sp].d(A)[sp].d(G)[sp].d(C)[sp].d(C)[sp].[cEt](T)[sp].[cEt](C)[sp].[moe](C)}$$$$V2.0	55% and 36%	–
RNA1{[moe](A)[sp].[moe](C)[sp].d(G)[sp].d(T)[sp].d(G)[sp].d(C)[sp].d(A)[sp].d(G)[sp].d(A)[sp].d(G)[sp].d(G)[sp].[moe](T)[sp].[moe](G)[sp].[moe](A)[sp].[moe](A)[sp].[moe](G)[sp].[moe](C)}$$$$V2.0	78%	target mRNA inhibition (HepG2, 0.0092593 µM): 20%; target mRNA inhibition (HepG2, 0.0277778 µM): 25%; target mRNA inhibition (HepG2, 0.0833333 µM): 69%; target mRNA inhibition (HepG2, 0.25 µM): 89%
RNA1{[moe](A)[sp].[cEt](G)[sp].d(C)[sp].d(G)[sp].d(A)[sp].d(A)[sp].d(G)[sp].d(T)[sp].d(G)[sp].d(C)[sp].d(A)[sp].d(C)[sp].[cEt](A)[sp].[moe](C)[sp].[cEt](G)[sp].[moe](G)}$$$$V2.0	86% and 88%	target mRNA inhibition (HepG2, 0.0092593 µM): 24%; target mRNA inhibition (HepG2, 0.0277778 µM): 62%; target mRNA inhibition (HepG2, 0.0833333 µM): 84%; target mRNA inhibition (HepG2, 0.25 µM): 91%

Substance	target mRNA inhibition (HepG2, 0.07 µM)	further results
RNA1{[moe](A)[sp].[moe](G)[sp].[moe](A)[sp].d(G)[sp].d(G)[sp].d(T)[sp].d(G)[sp].d(A)[sp].d(A)[sp].d(G)[sp].d(C)[sp].d(G)[sp].d(A)[sp].[cEt](A)[sp].[cEt](G)[sp].[cEt](T)}$$$$V2.0	69% and 74%	–
RNA1{[moe](G)[sp].[moe](G)[sp].[moe](T)[sp].[moe](G)[sp].[moe](A)[sp].d(A)[sp].d(G)[sp].d(C)[sp].d(G)[sp].d(A)[sp].d(A)[sp].d(G)[sp].d(T)[sp].d(G)[sp].[moe](C)[sp].[moe](A)}$$$$V2.0	51% and 46%	–
RNA1{[moe](A)[sp].[moe](C)[sp].[moe](G)[sp].[moe](T)[sp].[moe](G)[sp].[moe](C)[sp].d(A)[sp].d(G)[sp].d(A)[sp].d(G)[sp].d(G)[sp].d(T)[sp].d(G)[sp].d(A)[sp].d(A)[sp].[moe](G)[sp].[moe](C)}$$$$V2.0	78% and 58%	–
RNA1{[moe](C)[sp].[moe](G)[sp].[moe](A)[sp].[moe](A)[sp].[moe](C)[sp].[moe](C)[sp].d(A)[sp].d(C)[sp].d(T)[sp].d(G)[sp].d(A)[sp].d(A)[sp].d(C)[sp].d(A)[sp].d(A)[sp].[moe](A)[sp].[moe](T)}$$$$V2.0	0% and 20%	–
RNA1{[moe](G)[sp].[moe](G)[sp].[moe](C)[sp].d(A)[sp].d(T)[sp].d(A)[sp].d(G)[sp].d(C)[sp].d(A)[sp].d(G)[sp].d(C)[sp].d(A)[sp].[moe](G)[sp].[moe](G)[sp].[moe](A)[sp].[moe](T)[sp].[moe](G)}$$$$V2.0	68% and 66%	target mRNA inhibition (HepG2, 0.0092593 µM): 16%; target mRNA inhibition (HepG2, 0.0277778 µM): 11%; target mRNA inhibition (HepG2, 0.0833333 µM): 40%; target mRNA inhibition (HepG2, 0.25 µM): 66%
RNA1{[moe](G)[sp].[moe](G)[sp].[moe](C)[sp].[moe](A)[sp].[moe](T)[sp].d(A)[sp].d(G)[sp].d(C)[sp].d(A)[sp].d(G)[sp].d(C)[sp].d(A)[sp].d(G)[sp].d(G)[sp].[moe](A)[sp].[moe](T)[sp].[moe](G)}$$$$V2.0	0%	–
RNA1{[moe](G)[sp].[moe](A)[sp].[moe](A)[sp].[moe](C)[sp].d(C)[sp].d(A)[sp].d(C)[sp].d(T)[sp].d(G)[sp].d(A)[sp].d(A)[sp].d(C)[sp].d(A)[sp].[moe](A)[sp].[moe](A)[sp].[moe](T)}$$$$V2.0	34% and 23%	–
RNA1{[moe](T)[sp].[moe](T)[sp].[moe](T)[sp].[moe](A)[sp].[moe](T)[sp].d(G)[sp].d(C)[sp].d(C)[sp].d(T)[sp].d(A)[sp].d(C)[sp].d(A)[sp].d(G)[sp].d(C)[sp].[moe](C)[sp].[moe](T)}$$$$V2.0	53% and 37%	–
RNA1{[moe](G)[sp].[moe](T)[sp].[moe](T)[sp].[moe](C)[sp].[moe](C)[sp].[moe](G)[sp].d(C)[sp].d(A)[sp].d(G)[sp].d(T)[sp].d(A)[sp].d(T)[sp].d(G)[sp].d(G)[sp].d(A)[sp].[moe](T)[sp].[moe](C)}$$$$V2.0	74% and 57%	–
RNA1{[moe](A)[sp].[moe](G)[sp].d(A)[sp].d(T)[sp].d(G)[sp].d(A)[sp].d(G)[sp].d(G)[sp].d(C)[sp].d(A)[sp].d(T)[sp].[moe](A)[sp].[moe](G)[sp].[moe](C)[sp].[moe](A)[sp].[moe](G)[sp].[moe](C)}$$$$V2.0	76% and 78%	–
RNA1{[moe](C)[sp].[moe](A)[sp].[moe](G)[sp].d(A)[sp].d(G)[sp].d(G)[sp].d(T)[sp].d(G)[sp].d(A)[sp].d(A)[sp].d(G)[sp].d(C)[sp].d(G)[sp].[cEt](A)[sp].[cEt](A)[sp].[cEt](G)}$$$$V2.0	60% and 62%	–
RNA1{[moe](T)[sp].[cEt](T)[sp].[cEt](T)[sp].d(A)[sp].d(T)[sp].d(G)[sp].d(C)[sp].d(C)[sp].d(T)[sp].d(A)[sp].d(C)[sp].d(A)[sp].d(G)[sp].[cEt](C)[sp].[cEt](C)[sp].[moe](T)}$$$$V2.0	55% and 49%	–
RNA1{[moe](C)[sp].[moe](A)[sp].[moe](A)[sp].[moe](T)[sp].[moe](T)[sp].d(T)[sp].d(A)[sp].d(T)[sp].d(G)[sp].d(C)[sp].d(C)[sp].d(T)[sp].d(A)[sp].d(C)[sp].[moe](A)[sp].[moe](G)[sp].[moe](C)}$$$$V2.0	30% and 13%	–
RNA1{[moe](A)[sp].[moe](C)[sp].[moe](T)[sp].[moe](G)[sp].d(G)[sp].d(A)[sp].d(G)[sp].d(C)[sp].d(C)[sp].d(A)[sp].d(C)[sp].d(C)[sp].d(A)[sp].[moe](G)[sp].[moe](C)[sp].[moe](A)}$$$$V2.0	45% and 20%	–
RNA1{[moe](T)[sp].[moe](G)[sp].[moe](C)[sp].[moe](A)[sp].d(G)[sp].d(A)[sp].d(G)[sp].d(G)[sp].d(T)[sp].d(G)[sp].d(A)[sp].d(A)[sp].d(G)[sp].[moe](C)[sp].[moe](G)[sp].[moe](A)}$$$$V2.0	60% and 68%	–
